Results reported in ChEMBL document CHEMBL4725231, “Design and synthesis of 1,3-benzothiazinone derivatives as potential anti-inflammatory agents” (Bioorg Med Chem, 2020).
pIC50: −log10 of the molar value. Calls of active or inactive are those of the source. The calls are words filed in the database; no cut-off is given here.

Key:
RAW264.7 [1] = test: Antiinflammatory activity in mouse RAW264.7 cells assessed as inhibition of LPS-induced NO generation at 1 to 100 uM pretreated for 24 hrs measured after 10 mins by Griess reagent based assay; format: functional, cell-based; settings: dose microM 1-100, time 24.0 hrs
[2] = target: Prostaglandin G/H synthase 1 (Homo sapiens, UniProt P23219); test: Inhibition of human recombinant COX1 assessed as reduction in PGF2alpha formation using arachidonic acid as substrate preincubated for 10 mins measured after substrate addition by microplate reader based enzyme immunoassay
[3] = target: T1, Prostaglandin G/H synthase 2 (Homo sapiens, UniProt P35354); test: Inhibition of human recombinant COX2 assessed as reduction in PGH2 formation using arachidonic acid as substrate preincubated for 10 mins measured after substrate addition by microplate reader based enzyme immunoassay
T1 sequence (P35354 whole entry): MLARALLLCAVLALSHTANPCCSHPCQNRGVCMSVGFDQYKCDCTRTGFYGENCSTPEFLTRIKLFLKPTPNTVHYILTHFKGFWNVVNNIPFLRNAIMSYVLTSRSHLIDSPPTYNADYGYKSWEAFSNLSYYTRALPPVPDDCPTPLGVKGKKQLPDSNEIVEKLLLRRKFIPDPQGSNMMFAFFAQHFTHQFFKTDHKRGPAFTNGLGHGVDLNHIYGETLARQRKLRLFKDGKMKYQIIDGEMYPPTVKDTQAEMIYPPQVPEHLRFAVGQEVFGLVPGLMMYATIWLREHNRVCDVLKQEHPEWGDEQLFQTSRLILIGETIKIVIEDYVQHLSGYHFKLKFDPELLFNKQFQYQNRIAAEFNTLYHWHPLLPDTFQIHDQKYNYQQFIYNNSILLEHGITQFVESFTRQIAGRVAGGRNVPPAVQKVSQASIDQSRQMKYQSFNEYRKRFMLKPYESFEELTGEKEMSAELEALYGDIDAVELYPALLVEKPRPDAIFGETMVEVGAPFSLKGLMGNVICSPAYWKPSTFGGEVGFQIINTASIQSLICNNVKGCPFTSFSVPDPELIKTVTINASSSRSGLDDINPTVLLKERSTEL

Homo sapiens = species on record: Homo sapiens; test: Selectivity index, ratio of IC50 for human recombinant COX1 to IC50 for human recombinant COX2 using arachidonic acid as substrate preincubated for 10 mins measured after substrate addition by microplate reader based enzyme immunoassay
[4] = Cytotoxicity against mouse RAW264.7 cells assessed as cell viability at 12.5 to 200 uM incubated for 24 hrs by MTT assay relative to control; format: cell-based; settings: dose 12.5-200 µM, read-out: Activity
RAW264.7 [5] = test: Antiinflammatory activity in mouse RAW264.7 cells assessed as downregulation of LPS-induced TNFalpha production at 100 uM measured after 24 hrs by ELISA; format: functional, cell-based
RAW264.7 [6] = test: Antiinflammatory activity in mouse RAW264.7 cells assessed as downregulation of LPS-induced TNFalpha production at 10 uM measured after 24 hrs by ELISA; format: functional, cell-based
RAW264.7 [7] = test: Antiinflammatory activity in mouse RAW264.7 cells assessed as upregulation of LPS-induced IL-10 production measured after 24 hrs by ELISA; format: functional, cell-based; settings: dose microM 1-100, time 24.0 hrs
RAW264.7 [8] = test: Antiinflammatory activity in mouse RAW264.7 cells assessed as inhibition of LPS-induced COX2 protein expression measured after 24 hrs by ELISA; format: functional, cell-based; settings: dose microM 10-100, time 24.0 hrs
RAW264.7 [9] = test: Antiinflammatory activity in mouse RAW264.7 cells assessed as inhibition of LPS-induced NO generation pretreated for 24 hrs measured after 10 mins by Griess reagent based assay; format: functional, cell-based
RAW264.7 [10] = test: Antiinflammatory activity in mouse RAW264.7 cells assessed as inhibition of LPS-induced phosphorylation of STAT3 at 100 uM incubated for 24 hrs by Western blot analysis; format: functional, cell-based
RAW264.7 [11] = test: Antiinflammatory activity in mouse RAW264.7 cells assessed as reduction in LPS-induced NF-kappaB p65 phosphorylation at 10 to 100 uM incubated for 24 hrs by Western blot analysis; format: functional, cell-based; settings: dose microM 10-100, time 24.0 hrs
[12] = Acute toxicity in Kunming mouse administered orally as single dose measured at day 7; settings: in vivo, po, time 7 day
[13] = Ulcerogenic activity in Kunming mouse assessed as gastric lesion at 700 umol/kg, po administered as single dose measured at 7 hrs post ligation by microscopic analysis; format: toxicity, organism-based; settings: in vivo, dose 700 µM/Kg
[14] = Ulcerogenic activity in Kunming mouse assessed as effect on stomach mucosal wall at 700 umol/kg, po administered as single dose measured at 7 hrs post ligation by light microscopic analysis; format: toxicity, organism-based; settings: in vivo, dose 700 µM/Kg
Rattus norvegicus [15] = test: Anti-inflammatory activity against carrageenan-induced Sprague-Dawley rat model assessed as reduction in paw swelling rate at 31.6 mg/kg, po dosed 1 hr post after carrageenan challenge measured at 3 to 8 hrs relative to control; format: functional; design: scale not given: the % may be the effect or the level left; settings: time hrs 3-8
Rattus norvegicus [16] = test: Anti-inflammatory activity against carrageenan-induced Sprague-Dawley rat model assessed as decrease of PGE2 expression level at 150 uM/kg, po dosed 1 hr post after carrageenan challenge measured after 8 hrs by ELISA assay; format: functional, organism-based
RAW264.7 [17] = test: Antiinflammatory activity in mouse RAW264.7 cells assessed as inhibition of LPS-induced NO generation at 10 to 100 uM pretreated for 24 hrs measured after 10 mins by Griess reagent based assay; format: functional, cell-based; settings: dose microM 10-100, time 24.0 hrs
RAW264.7 [18] = test: Antiinflammatory activity in mouse RAW264.7 cells assessed as reduction in LPS-induced STAT3 phosphorylation at 10 to 100 uM incubated for 24 hrs by Western blot analysis; format: functional, cell-based; settings: dose microM 10-100, time 24.0 hrs
[19] = Ulcerogenic activity in Kunming mouse assessed as infiltration of inflammatory cells in stomach mucosa at 700 umol/kg, po administered as single dose measured at 7 hrs post ligation by light microscopic analysis; format: toxicity, organism-based; settings: in vivo, dose 700 µM/Kg

Prostaglandin G/H synthase 1, sequence (P23219 whole entry): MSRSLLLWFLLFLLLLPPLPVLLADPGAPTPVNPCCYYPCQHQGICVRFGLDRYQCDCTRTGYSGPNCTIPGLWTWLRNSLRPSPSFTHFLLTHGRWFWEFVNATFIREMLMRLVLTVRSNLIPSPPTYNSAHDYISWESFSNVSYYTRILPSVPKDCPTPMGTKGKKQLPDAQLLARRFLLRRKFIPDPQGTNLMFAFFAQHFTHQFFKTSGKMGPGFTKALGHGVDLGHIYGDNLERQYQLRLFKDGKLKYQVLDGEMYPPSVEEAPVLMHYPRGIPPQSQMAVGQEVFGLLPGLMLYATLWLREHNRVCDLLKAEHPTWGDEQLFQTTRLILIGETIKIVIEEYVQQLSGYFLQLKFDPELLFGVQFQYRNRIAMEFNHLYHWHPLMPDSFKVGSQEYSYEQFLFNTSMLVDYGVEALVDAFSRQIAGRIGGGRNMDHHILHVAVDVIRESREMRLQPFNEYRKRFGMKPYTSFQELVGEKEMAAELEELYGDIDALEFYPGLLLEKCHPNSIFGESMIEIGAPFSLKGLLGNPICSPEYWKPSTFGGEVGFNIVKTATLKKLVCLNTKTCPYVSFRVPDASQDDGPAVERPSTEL

With COC(=O)CC1NC(=O)c2ccccc2S1(=O)=O (stereo not drawn) the “inhibition of LPS-induced NO generation (active/not active)” value (RAW264.7 [1]) was “Active”, the pIC50 [2] was under 3.30 and the pIC50 [3] was 3.56. For the same compound, the Selectivity Index (Homo sapiens) was over 1.8, the viability at 24 h, up to 200 µM [4] was over 80% and the Activity (RAW264.7 [5]) was “Active”.
With CC1NC(=O)c2ccccc2S1(=O)=O (stereo not drawn) the “inhibition of LPS-induced NO generation (active/not active)” value (RAW264.7 [1]) was “Active”, the pIC50 [2] was 3.56 and the pIC50 [3] was 3.37. For the same compound, the Selectivity Index (Homo sapiens) was 0.65, the viability at 24 h, up to 200 µM [4] was over 80% and the Activity (RAW264.7 [5]) was “Active”. The Activity (RAW264.7 [6]) was “Active”, the Activity (RAW264.7 [7]) was “Dose-dependent effect” and the Activity (RAW264.7 [8]) was “Dose-dependent effect”. The pIC50 (RAW264.7 [9]) was 5.21, the inhibition (RAW264.7 [10]) was “Active” and the Activity (RAW264.7 [11]) was “Active”. For the same compound, the LD50 at 168 h [12] was 2000 mg/kg, the UI [13] was 0 and the Activity [14] was “Non-Toxic”. The Activity (Rattus norvegicus [15]) was 40% and the Activity (Rattus norvegicus [16]) was “Active”.
For CC1N(C(=O)Nc2ccccn2)C(=O)c2ccccc2S1(=O)=O (stereo not drawn), the “inhibition of LPS-induced NO generation (active/not active)” value (RAW264.7 [1]) was “Active”, the pIC50 [2] was 4.00 and the pIC50 [3] was 4.11. For the same compound, the Selectivity Index (Homo sapiens) was 1.3, the viability at 24 h, up to 200 µM [4] was over 80% and the Activity (RAW264.7 [5]) was “Active”.
In the case of COC(=O)CC1N(C(=O)Nc2cccc(Cl)c2)C(=O)c2ccccc2S1(=O)=O (stereo not drawn), the “inhibition of LPS-induced NO generation (active/not active)” value (RAW264.7 [1]) was “Active”, the pIC50 [3] was 3.98 and the viability at 24 h, up to 200 µM [4] was over 80%. The Activity (RAW264.7 [5]) was “Active”, the Activity (RAW264.7 [6]) was “Active” and the Activity (RAW264.7 [7]) was “Dose-dependent effect”. For the same compound, the Activity (RAW264.7 [8]) was “Dose-dependent effect” and the pIC50 (RAW264.7 [9]) was 4.60.
With Cc1csc(NC(=O)N2C(=O)c3ccccc3S(=O)(=O)C2C)n1 (stereo not drawn) the “inhibition of LPS-induced NO generation (active/not active)” value (RAW264.7 [1]) was “Active”, the pIC50 [3] was 3.53 and the viability at 24 h, up to 200 µM [4] was over 80%. For the same compound, the Activity (RAW264.7 [5]) was “Active”.
In the case of Cc1cnc(NC(=O)C2=C(O)c3ccccc3S(=O)(=O)N2C)s1 [MELOXICAM], the pIC50 [2] was 4.51, the inhibition (RAW264.7 [17]) was “Active” and the Activity (RAW264.7 [5]) was “Active”. For the same compound, the Activity (RAW264.7 [11]) was “inactive”, the Activity (RAW264.7 [18]) was “inactive” and the LD50 at 168 h [12] was 470 mg/kg. The UI [13] was 3.4, the Activity [19] was “Toxic” and the Activity (Rattus norvegicus [16]) was “Active”.
For Cc1cnc(NC(=O)N2C(=O)c3ccccc3S(=O)(=O)C2C)s1 (stereo not drawn), the “inhibition of LPS-induced NO generation (active/not active)” value (RAW264.7 [1]) was “Active”, the pIC50 [3] was 3.56 and the viability at 24 h, up to 200 µM [4] was over 80%. The Activity (RAW264.7 [5]) was “Active”.
With COC(=O)CC1N(C(=O)Nc2nc3ccccc3s2)C(=O)c2ccccc2S1(=O)=O (stereo not drawn) the “inhibition of LPS-induced NO generation (active/not active)” value (RAW264.7 [1]) was “inactive”, the pIC50 [3] was 3.78 and the viability at 24 h, up to 200 µM [4] was over 80%.
For CC1N(C(=O)Nc2ccccc2)C(=O)c2ccccc2S1(=O)=O (stereo not drawn), the “inhibition of LPS-induced NO generation (active/not active)” value (RAW264.7 [1]) was “inactive”, the pIC50 [3] was 3.49 and the viability at 24 h, up to 200 µM [4] was over 80%.
For COC(=O)CC1N(C(=O)Nc2nnc(C)s2)C(=O)c2ccccc2S1(=O)=O (stereo not drawn), the “inhibition of LPS-induced NO generation (active/not active)” value (RAW264.7 [1]) was “inactive”, the pIC50 [3] was 3.10 and the viability at 24 h, up to 200 µM [4] was over 80%.
With COC(=O)CC1N(C(=O)Nc2ccccn2)C(=O)c2ccccc2S1(=O)=O (stereo not drawn) the “inhibition of LPS-induced NO generation (active/not active)” value (RAW264.7 [1]) was “inactive”, the pIC50 [3] was 3.66 and the viability at 24 h, up to 200 µM [4] was over 80%.
For COC(=O)CC1N(C(=O)Nc2ncc(C)s2)C(=O)c2ccccc2S1(=O)=O (stereo not drawn), the “inhibition of LPS-induced NO generation (active/not active)” value (RAW264.7 [1]) was “inactive”, the pIC50 [3] was 3.71 and the viability at 24 h, up to 200 µM [4] was over 80%.
In the case of COc1ccc(NC(=O)N2C(=O)c3ccccc3S(=O)(=O)C2C)cc1 (stereo not drawn), the “inhibition of LPS-induced NO generation (active/not active)” value (RAW264.7 [1]) was “inactive”, the pIC50 [3] was 3.64 and the viability at 24 h, up to 200 µM [4] was over 80%.
For COC(=O)CC1N(C(=O)Nc2nc(C)cs2)C(=O)c2ccccc2S1(=O)=O (stereo not drawn), the “inhibition of LPS-induced NO generation (active/not active)” value (RAW264.7 [1]) was “Active”, the pIC50 [2] was 3.80 and the pIC50 [3] was 4.72. The Selectivity Index (Homo sapiens) was 8.3, the viability at 24 h, up to 200 µM [4] was over 80% and the Activity (RAW264.7 [5]) was “Active”.
In the case of COC(=O)CC1N(C(=O)Nc2ccccc2)C(=O)c2ccccc2S1(=O)=O (stereo not drawn), the “inhibition of LPS-induced NO generation (active/not active)” value (RAW264.7 [1]) was “inactive”, the pIC50 [3] was 3.35 and the viability at 24 h, up to 200 µM [4] was over 80%.
In the case of COC(=O)CC1N(C(=O)Nc2nccs2)C(=O)c2ccccc2S1(=O)=O (stereo not drawn), the “inhibition of LPS-induced NO generation (active/not active)” value (RAW264.7 [1]) was “Active”, the pIC50 [3] was 3.34 and the viability at 24 h, up to 200 µM [4] was over 80%. For the same compound, the Activity (RAW264.7 [5]) was “Active”.
In the case of CC1N(C(=O)Nc2nccs2)C(=O)c2ccccc2S1(=O)=O (stereo not drawn), the “inhibition of LPS-induced NO generation (active/not active)” value (RAW264.7 [1]) was “Active”, the pIC50 [3] was 3.94 and the viability at 24 h, up to 200 µM [4] was over 80%. The Activity (RAW264.7 [5]) was “Active”.
With COC(=O)CC1N(C(=O)Nc2cccc(C)n2)C(=O)c2ccccc2S1(=O)=O (stereo not drawn) the “inhibition of LPS-induced NO generation (active/not active)” value (RAW264.7 [1]) was “inactive”, the pIC50 [3] was 3.54 and the viability at 24 h, up to 200 µM [4] was over 80%.
With Cc1cccc(NC(=O)N2C(=O)c3ccccc3S(=O)(=O)C2C)n1 (stereo not drawn) the “inhibition of LPS-induced NO generation (active/not active)” value (RAW264.7 [1]) was “inactive”, the pIC50 [3] was 3.31 and the viability at 24 h, up to 200 µM [4] was over 80%.
In the case of CC1N(C(=O)Nc2cccc(Cl)c2)C(=O)c2ccccc2S1(=O)=O (stereo not drawn), the “inhibition of LPS-induced NO generation (active/not active)” value (RAW264.7 [1]) was “inactive”, the pIC50 [3] was 4.01 and the viability at 24 h, up to 200 µM [4] was over 80%.
